Reference: patent US20100041089A1, “IMPROVED METHOD FOR DETECTING CHEMICAL […]” (priority 2006, published 2010)

Tested on: yeast genes (expressed mRNA)
Assay: DNA chip measurement of expressed mRNA of yeast genes after culture with a toxic chemical substance
Format: cell-based, Saccharomyces cerevisiae S288C
Details: for level of expressed mRNA in the presence of chemical substance / level in the absence of chemical substance: cultured two hours with the chemical substance; for The level of expressed mRNA in the presence of chemical substance/The level of expressed mRNA in the absence of chemical substance: cultured two hours with substance
Method: Yeast (Saccharomyces cerevisiae S288C (a SUC2mal mel gap2 CUP1)) were cultured at 25° C. on YPD medium (yeast extract 1%, polypeptone 2%, glucose 2%). One of toxic chemical substances was added to the cell at logarithmic growth phase, and the cell was further cultured for two hours. Cell was cultured without any chemical substance in the same condition, and was used as a control. Concentrations of the chemical substances were defined to inhibit the growth of the yeast but not lead to death.
After the completion of cultivation, the culture was centrifuged to collect the cells. To the cells, sodium acetate buffer (50 mM sodium acetate, 10 mM EDTA, 1% SDS) was added, and the mixture was shaken at 65° C. for five minutes, followed by returning to room temperature, and obtaining the supernatant, which procedure was repeated two times. To the supernatant, ½ amount of a solution of phenol/chloroform (1:1) was added, and the mixture was centrifuged to give a supernatant, an equal amount of chloroform was added, and the mixture was centrifuged to give a supernatant. To the supernatant, an equal amount of isopropanol containing 0.3 M sodium acetate was added, and the mixture was allowed to stand at room temperature for 30 minutes, after which the mixture was centrifuged to give sediment of the whole RNAs. Seventy % ethanol was added to the sediment, and the mixture was again centrifuged to give sediment, which was then dried and dissolved in water. mRNA was isolated from the whole RNAs as followings. In view of the fact that a poly A chain is attached to the 3′ terminus of mRNA, a polynucleotide having a poly T structure which was immobilized on the surface of latex beads was used to trap the mRNA, and then the mRNA was washed and eluted with spine column (Oligotex-dT30<Super>mRNA Purification Kit, Takara). Reverse transcription of the mRNA was conducted with a reverse transcriptase (Super Script II Reverse Transcriptase; catalogue No. 18064-014, GibcoBRL) using fluorescence-labeled nucleotides to give cDNAs that were introduced with Cy3-dUTP or Cy5-dUTP during the reverse transcription.
The labeled cDNAs were dissolved in TE buffer (10 mM Tris-HCl/1 mM EDTA, pH 8.0), and the solution was dropped on the DNA chip containing the whole genes of yeast (DNA Chip Research Inc. Japan) so that the cDNAs were hybridized on the DNA chip at 65° C. for over 12 hours. The fluoresces intensity of the DNA chip was read with a scanner, and the ratio relative to the fluorescence intensity resulting from the absence of chemical substance was estimated as the following, which is shown in Tables 1 to 9.
In the Tables, “Intensity” indicated in the rightmost column is a value of the level of expressed mRNA of each gene in control cells as divided by the average level of the expressions of the whole genes. A gene of which mRNA level is lower in control, and is higher in cases of addition of chemical substance, is especially useful in the detection of toxic substances.
Here, when a ratio of an amount of mRNA expressed in the presence of the chemical substance to an amount of mRNA expressed in the absence of the chemical substance is two or more, then it is considered significant.

SMILES: [Cl][Pb][Cl] [(4), PbCl2]
- The level of expressed mRNA in the presence of chemical substance/The level of expressed mRNA in the absence of chemical substance, yeast gene YBR036C (gene YBR036C, Metabolism protein genes, DNA chip fluorescence ratio): 1.2
- The level of expressed mRNA in the presence of chemical substance/The level of expressed mRNA in the absence of chemical substance, yeast gene YBR298C (gene YBR298C, Metabolism protein genes, DNA chip fluorescence ratio): 2.3
- The level of expressed mRNA in the presence of chemical substance/The level of expressed mRNA in the absence of chemical substance, yeast gene YDL067C (gene YDL067C (mitochondria-located protein gene), yeast cultured two hours with chemical substance, DNA chip fluorescence ratio to control): 1.3
- The level of expressed mRNA in the presence of chemical substance/The level of expressed mRNA in the absence of chemical substance, yeast gene YDL078C (gene YDL078C, Metabolism protein genes, DNA chip fluorescence ratio): 0.8
- The level of expressed mRNA in the presence of chemical substance/The level of expressed mRNA in the absence of chemical substance, yeast gene YDL215C (gene YDL215C, Metabolism protein genes, DNA chip fluorescence ratio): 1.6
- The level of expressed mRNA in the presence of chemical substance/The level of expressed mRNA in the absence of chemical substance, yeast gene YDR079W (gene YDR079W (mitochondria-located protein gene), yeast cultured two hours with chemical substance, DNA chip fluorescence ratio to control): 1.1
- The level of expressed mRNA in the presence of chemical substance/The level of expressed mRNA in the absence of chemical substance, yeast gene YDR297W (gene YDR297W, Metabolism protein genes, DNA chip fluorescence ratio): 1.1
- The level of expressed mRNA in the presence of chemical substance/The level of expressed mRNA in the absence of chemical substance, yeast gene YDR387C (gene YDR387C, Metabolism protein genes, DNA chip fluorescence ratio): 2.2
- The level of expressed mRNA in the presence of chemical substance/The level of expressed mRNA in the absence of chemical substance, yeast gene YGL035C (gene YGL035C, Metabolism protein genes, DNA chip fluorescence ratio): 1.4
- The level of expressed mRNA in the presence of chemical substance/The level of expressed mRNA in the absence of chemical substance, yeast gene YGR062C (gene YGR062C (mitochondria-located protein gene), yeast cultured two hours with chemical substance, DNA chip fluorescence ratio to control): 1.4
- The level of expressed mRNA in the presence of chemical substance/The level of expressed mRNA in the absence of chemical substance, yeast gene YGR287C (gene YGR287C, Metabolism protein genes, DNA chip fluorescence ratio): 1.5
- The level of expressed mRNA in the presence of chemical substance/The level of expressed mRNA in the absence of chemical substance, yeast gene YJL070C (gene YJL070C, Metabolism protein genes, DNA chip fluorescence ratio): 1.2
- The level of expressed mRNA in the presence of chemical substance/The level of expressed mRNA in the absence of chemical substance, yeast gene YJL096W (gene YJL096W (mitochondria-located protein gene), yeast cultured two hours with chemical substance, DNA chip fluorescence ratio to control): 1.3
- The level of expressed mRNA in the presence of chemical substance/The level of expressed mRNA in the absence of chemical substance, yeast gene YJL180C (gene YJL180C (mitochondria-located protein gene), yeast cultured two hours with chemical substance, DNA chip fluorescence ratio to control): 1.3
- The level of expressed mRNA in the presence of chemical substance/The level of expressed mRNA in the absence of chemical substance, yeast gene YKR009C (gene YKR009C, Metabolism protein genes, DNA chip fluorescence ratio): 0.9
- The level of expressed mRNA in the presence of chemical substance/The level of expressed mRNA in the absence of chemical substance, yeast gene YLR295C (gene YLR295C (mitochondria-located protein gene), yeast cultured two hours with chemical substance, DNA chip fluorescence ratio to control): 1.7
- The level of expressed mRNA in the presence of chemical substance/The level of expressed mRNA in the absence of chemical substance, yeast gene YLR351C (gene YLR351C, Metabolism protein genes, DNA chip fluorescence ratio): 1.5
- The level of expressed mRNA in the presence of chemical substance/The level of expressed mRNA in the absence of chemical substance, yeast gene YLR375W (gene YLR375W, Metabolism protein genes, DNA chip fluorescence ratio): 0.9
- The level of expressed mRNA in the presence of chemical substance/The level of expressed mRNA in the absence of chemical substance, yeast gene YMR023C (gene YMR023C (mitochondria-located protein gene), yeast cultured two hours with chemical substance, DNA chip fluorescence ratio to control): 1.9
- The level of expressed mRNA in the presence of chemical substance/The level of expressed mRNA in the absence of chemical substance, yeast gene YMR267W (gene YMR267W (mitochondria-located protein gene), yeast cultured two hours with chemical substance, DNA chip fluorescence ratio to control): 0.9
- The level of expressed mRNA in the presence of chemical substance/The level of expressed mRNA in the absence of chemical substance, yeast gene YMR267W (gene YMR267W, Metabolism protein genes, DNA chip fluorescence ratio): 0.9
- The level of expressed mRNA in the presence of chemical substance/The level of expressed mRNA in the absence of chemical substance, yeast gene YMR278W (gene YMR278W, Metabolism protein genes, DNA chip fluorescence ratio): 1.0
- The level of expressed mRNA in the presence of chemical substance/The level of expressed mRNA in the absence of chemical substance, yeast gene YMR293C (gene YMR293C, Metabolism protein genes, DNA chip fluorescence ratio): 2.2
- The level of expressed mRNA in the presence of chemical substance/The level of expressed mRNA in the absence of chemical substance, yeast gene YNL073W (gene YNL073W (mitochondria-located protein gene), yeast cultured two hours with chemical substance, DNA chip fluorescence ratio to control): 1.7
- The level of expressed mRNA in the presence of chemical substance/The level of expressed mRNA in the absence of chemical substance, yeast gene YNR072W (gene YNR072W, Metabolism protein genes, DNA chip fluorescence ratio): 0.7
- The level of expressed mRNA in the presence of chemical substance/The level of expressed mRNA in the absence of chemical substance, yeast gene YOL096C (gene YOL096C, Metabolism protein genes, DNA chip fluorescence ratio): 1.6
- The level of expressed mRNA in the presence of chemical substance/The level of expressed mRNA in the absence of chemical substance, yeast gene YOR180C (gene YOR180C, Metabolism protein genes, DNA chip fluorescence ratio): 1.0
- The level of expressed mRNA in the presence of chemical substance/The level of expressed mRNA in the absence of chemical substance, yeast gene YOR316C (gene YOR316C (mitochondria-located protein gene), yeast cultured two hours with chemical substance, DNA chip fluorescence ratio to control): 1.5
- The level of expressed mRNA in the presence of chemical substance/The level of expressed mRNA in the absence of chemical substance, yeast gene YOR363C (gene YOR363C, Metabolism protein genes, DNA chip fluorescence ratio): 1.3
- The level of expressed mRNA in the presence of chemical substance/The level of expressed mRNA in the absence of chemical substance, yeast gene YPL040C (gene YPL040C (mitochondria-located protein gene), yeast cultured two hours with chemical substance, DNA chip fluorescence ratio to control): 1.7
- The level of expressed mRNA in the presence of chemical substance/The level of expressed mRNA in the absence of chemical substance, yeast gene YPL134C (gene YPL134C (mitochondria-located protein gene), yeast cultured two hours with chemical substance, DNA chip fluorescence ratio to control): 1.6
- The level of expressed mRNA in the presence of chemical substance/The level of expressed mRNA in the absence of chemical substance, yeast gene YPR184W (gene YPR184W, Metabolism protein genes, DNA chip fluorescence ratio): 2.2
- level of expressed mRNA in the presence of chemical substance / level in the absence of chemical substance (yeast gene YAL018C): 11.3
- The level of expressed mRNA in the presence of chemical substance/The level of expressed mRNA in the absence of chemical substance (yeast gene YAL053W): 2.1
- level of expressed mRNA in the presence of chemical substance / level in the absence of chemical substance (yeast gene YAR047C): 0.7
- level of expressed mRNA in the presence of chemical substance / level in the absence of chemical substance (yeast gene YAR064W): 2.8
- level of expressed mRNA in the presence of chemical substance / level in the absence of chemical substance (yeast gene YBL044W): 0.8
- The level of expressed mRNA in the presence of chemical substance/The level of expressed mRNA in the absence of chemical substance (yeast gene YBL048W): 2.8
- The level of expressed mRNA in the presence of chemical substance/The level of expressed mRNA in the absence of chemical substance (yeast gene YBL107C): 1.5
- level of expressed mRNA in the presence of chemical substance / level in the absence of chemical substance (yeast gene YBR012C): 0.8
- level of expressed mRNA in the presence of chemical substance / level in the absence of chemical substance (yeast gene YBR066C): 1.6
- level of expressed mRNA in the presence of chemical substance / level in the absence of chemical substance (yeast gene YBR124W): 0.4
- level of expressed mRNA in the presence of chemical substance / level in the absence of chemical substance (yeast gene YBR162C): 0.8
- level of expressed mRNA in the presence of chemical substance / level in the absence of chemical substance (yeast gene YBR287W): 2.4
- level of expressed mRNA in the presence of chemical substance / level in the absence of chemical substance (yeast gene YCL056C): 1.0
- level of expressed mRNA in the presence of chemical substance / level in the absence of chemical substance (yeast gene YCR007C): 2.9
- level of expressed mRNA in the presence of chemical substance / level in the absence of chemical substance (yeast gene YDL046W): 1.3
- The level of expressed mRNA in the presence of chemical substance/The level of expressed mRNA in the absence of chemical substance (yeast gene YDL072C): 2.1
- The level of expressed mRNA in the presence of chemical substance/The level of expressed mRNA in the absence of chemical substance (yeast gene YDL204W): 3.4
- The level of expressed mRNA in the presence of chemical substance/The level of expressed mRNA in the absence of chemical substance (yeast gene YDL222C): 3.9
- level of expressed mRNA in the presence of chemical substance / level in the absence of chemical substance (yeast gene YDR090C): 1.2
- level of expressed mRNA in the presence of chemical substance / level in the absence of chemical substance (yeast gene YDR128W): 0.9
